Assay results as given in patent publication US9556139B2, “6-substituted phenoxychroman carboxylic acid derivatives” (Array BioPharma Inc., priority 2008, dated 2017).

Molecular target: human DP2 (Homo sapiens (Human), UniProt Q9Y5Y4)
Assay: DP-2 Binding Inhibition Assay (3H-PGD2 binding to membranes of K562 cells expressing DP2)
Settings: read-out: EC50 (nM) 4% HSA; inhibition of 3H-PGD2 binding, 4% HSA
Summary of the method: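 Membranes from K562 stably expressing DP2, incubated 60 min at room temperature with ³H-PGD2 and compound in Tris pH 7.4 buffer with 0.1% BSA, 1% HSA or 4% HSA; filtration read-out. Nonspecific binding: 1 μM unlabeled PGD2 or 5 μM known antagonist. EC50 from 4-parameter logistic fit.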

human DP2, sequence (Q9Y5Y4 whole entry): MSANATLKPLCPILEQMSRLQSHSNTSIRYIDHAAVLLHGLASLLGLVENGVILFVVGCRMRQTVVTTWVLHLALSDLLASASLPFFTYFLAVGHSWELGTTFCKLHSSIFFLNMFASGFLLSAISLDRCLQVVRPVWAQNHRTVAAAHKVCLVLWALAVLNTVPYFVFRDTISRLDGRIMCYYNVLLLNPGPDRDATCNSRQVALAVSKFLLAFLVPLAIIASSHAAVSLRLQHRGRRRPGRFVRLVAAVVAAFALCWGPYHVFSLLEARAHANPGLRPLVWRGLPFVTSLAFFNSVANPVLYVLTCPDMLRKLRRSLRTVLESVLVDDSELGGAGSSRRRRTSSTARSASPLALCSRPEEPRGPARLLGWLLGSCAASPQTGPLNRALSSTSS

`O=C(NCCc1ccccc1Oc1ccccc1)c1ccc(Oc2cc3c(cc2Cl)C(C(=O)O)CCO3)cc1` (stereo not shown) [Example 65, Sodium 6-chloro-7-(4-(2-phenoxyphenethylcarbamoyl)phenoxy)chroman-4-carboxylate] gave an EC50 of 80.4 nM.
